Measurements as given in PubChem BioAssay (NCI).
Values joined by “and” are separate entries in the source; they are usually repeats but may differ in a detail not shown here. Equal entries are not always repeated.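 Five concentrations, 48 hours, 96-well plates. GI50: concentration for 50% inhibition of growth. At the TGI there is no net growth.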

Columns and labels:
Assay in all cases: growth of human tumour cells (NCI), 48 h
[1] = tested on: MDA-N
[2] = tested on: T-47D breast
[3] = tested on: DU-145 prostate
[4] = tested on: HT29 colon
[5] = tested on: MOLT-4 leukemia
[6] = tested on: IGROV1 ovarian
[7] = tested on: SK-MEL-2 melanoma
[8] = tested on: 786-0 renal
[9] = tested on: OVCAR-5 ovarian
[10] = tested on: SK-MEL-28 melanoma
[11] = tested on: A498 renal

| SMILES | TGI [1] | TGI [2] | TGI [3] | TGI [4] | TGI [5] | TGI [6] | TGI [7] | TGI [8] | TGI [9] | TGI [10] | GI50 [7] | GI50 [9] | GI50 [11] | TGI [11] | GI50 [10] | GI50 [2] | GI50 [3] | GI50 [4] | GI50 [5] |
| --- | --- | --- | --- | --- | --- | --- | --- | --- | --- | --- | --- | --- | --- | --- | --- | --- | --- | --- | --- |
| COC(=O)c1ccc(C)cc1C1CN=NC12Cc1cccc(C)c1C2=O (stereo unspecified) | 70.9 µM | 85.8 µM | > 100 µM | > 100 µM | 43.1 µM | > 100 µM | 63.8 µM | > 100 µM | > 100 µM | 91.8 µM |  |  |  |  |  |  |  |  |  |
| COc1ccc(Cn2c(=O)c(OS(=O)(=O)C(F)(F)F)c(C)c3cc4ccccc4cc32)cc1 | > 100 µM | > 100 µM | > 100 µM | > 100 µM | > 100 µM | > 100 µM | > 100 µM | > 100 µM | > 100 µM | > 100 µM |  |  |  |  |  |  |  |  |  |
| CCOC(=O)/C=C(/C(=O)OCC)n1cc(C)c(=O)n(Cc2cn(CCCCOC(C)=O)nn2)c1=O | > 100 µM | > 100 µM | > 100 µM | 20.5 µM | 24.9 µM | 29.6 µM | 45.1 µM | > 100 µM | 41 µM | 35.2 µM |  |  |  |  |  |  |  |  |  |
| Cc1c2cc[n+](C)cc2c(C)c2c1[nH]c1ccc(OCC(F)(F)F)cc12 |  |  |  | 8.14 µM and > 55.1 µM | 11.1 µM and > 55.9 µM | > 100 µM | > 100 µM | > 100 µM | > 100 µM | > 100 µM | 5.9 µM | 12 µM and > 100 µM | 47 µM and > 100 µM | > 100 µM | 5.31 µM and > 33.4 µM |  |  |  |  |
| Cc1cc2ccccc2oc(=O)/c1=N\Nc1ccccc1 | > 100 µM |  | > 100 µM | > 100 µM | > 100 µM | > 100 µM | > 100 µM | 97 µM | > 100 µM | > 100 µM |  |  |  | > 100 µM |  |  |  |  |  |
| C/C(=N\Nc1nc2cc(F)ccc2s1)c1ccccn1 |  | > 100 µM | > 100 µM | 3.33 µM | > 100 µM |  | 7.33 µM | > 39 µM | 50.1 µM | > 100 µM |  |  |  | > 100 µM |  |  |  |  |  |
| C[C@]12CC[C@H]3[C@@H](CC=C4C[C@@H](O)CC[C@@]43C)[C@@H]1C/C(=C\c1ccc([N+](=O)[O-])cc1)[C@@H]2O |  | 29.5 µM | 23 µM | 20.6 µM | > 100 µM | > 100 µM | 52.9 µM | 22.8 µM | 78.4 µM | 57.6 µM |  |  |  | 42.4 µM |  |  |  |  |  |
| CC(C)=CCNc1ncnc2c1ncn2CCC(=O)O | > 100 µM | > 100 µM | > 100 µM | > 100 µM | > 100 µM | > 100 µM |  | > 100 µM | > 100 µM | > 100 µM |  |  |  | > 100 µM |  |  |  |  |  |
| Cc1cc(C)c(S(=O)(=O)N(CCCCCN)OCCCN)c(C)c1 | 31.4 µM | 37.7 µM | 31.2 µM | 27.9 µM | 33 µM | 30 µM | 35.1 µM |  | 33.7 µM | 32.2 µM |  |  |  |  |  |  |  |  |  |
| C=C1c2nc3ccccc3n2C=C(c2ccccc2)N1c1ccc(C)cc1 |  |  | > 100 µM |  | > 100 µM | > 100 µM | > 100 µM | > 100 µM | > 100 µM |  |  |  |  | > 100 µM |  |  |  |  |  |
| CC(C)(C)N=C1C(=O)C2(C)CCC1C2(C)C (stereo unspecified) |  | > 100 µM | > 100 µM | > 100 µM |  | > 100 µM | > 100 µM | > 100 µM | > 100 µM | > 100 µM |  |  |  | 41.2 µM |  |  |  |  |  |
| O=Cc1c2c(cc3c1CC1(C3)Cc3cc4c(c(C=O)c3C1)CCC4)CCC2 | > 100 µM | > 100 µM |  | > 100 µM | 48.7 µM | > 100 µM | 50.8 µM | > 100 µM | > 100 µM |  |  |  |  | 84.7 µM |  |  |  |  |  |
| COc1cccc(C2C(C#N)=C(N)Oc3cc(OCCCCCC[P+](c4ccccc4)(c4ccccc4)c4ccccc4)ccc32)c1 (stereo unspecified) |  | 1.95 µM | 2.21 µM | 3.67 µM | 3.96 µM |  |  |  | 3.15 µM | 1.69 µM |  | 1.35 µM | 1.03 µM | 2.45 µM | 0.477 µM | 0.354 µM | 0.95 µM | 0.613 µM | 1.22 µM |
| O=C(NNC(=O)c1ccc(Cl)cc1NC(=O)C12CC3CC(CC(C3)C1)C2)c1ccc(Cl)cc1 | 55.9 µM | > 100 µM | 62.1 µM | 77 µM | 60.6 µM | 32.7 µM |  | 56.1 µM | 74.4 µM |  |  |  |  |  |  |  |  |  |  |
| O=Cn1c2ccccc2c2ccccc21 |  |  |  |  | > 100 µM | > 100 µM | > 100 µM | > 100 µM | > 100 µM | > 100 µM |  |  |  | > 100 µM |  |  |  |  |  |
| O=S1(=O)N=C(SCc2c[nH]c3ccccc23)N(c2ccccc2)c2ccncc21 | > 100 µM | > 100 µM | > 100 µM | > 100 µM | > 100 µM |  | > 100 µM | 65.5 µM | > 100 µM | > 100 µM |  |  |  | 82.2 µM |  |  |  |  |  |
| COC(=O)c1c(CC(=O)OC(C)C)cc2n(c1=O)Cc1c-2nc2ccccc2c1OC |  |  |  | > 100 µM | > 100 µM | > 100 µM | > 100 µM | > 100 µM | > 100 µM | > 100 µM |  |  |  | > 100 µM |  |  |  |  |  |
| COc1ccc(-c2csc3c2[N+]2(C)C=CC=C2C3N2CCCC2)cc1 (stereo unspecified) | > 100 µM | 76.1 µM |  | 43 µM | > 100 µM | 27.2 µM | 31.1 µM | > 100 µM | > 100 µM |  |  |  |  | > 100 µM |  |  |  |  |  |
| C[C@@H]([C@H]1CC[C@@]2(C)[C@@H]3CC[C@@H]4C(=CC3=CC[C@]12C)CC[C@H](N(C)C)C4(C)C)N(C)C | > 100 µM | > 100 µM | > 100 µM | > 100 µM | > 100 µM | > 100 µM |  | > 100 µM | > 100 µM | > 100 µM |  |  |  |  |  |  |  |  |  |
| COc1ccc(N=C(C)C(C)=Nc2ccc(OC)cc2)cc1 |  | > 100 µM | > 100 µM | > 100 µM | > 100 µM | > 100 µM | > 100 µM | > 100 µM | > 100 µM | > 100 µM |  |  |  | > 100 µM |  |  |  |  |  |
| NCCCNCCSP(=O)(O)O |  |  |  | > 750 µM | > 750 µM | > 750 µM | > 700 µM |  | > 750 µM | > 750 µM |  |  |  | > 75 µM |  |  |  |  |  |
| Cc1cc2ccccc2n2c1nc1ccc(O)cc12 |  | > 10 µM | > 10 µM | > 10 µM | > 10 µM | > 10 µM | > 10 µM | > 10 µM | > 10 µM | > 10 µM |  |  |  |  |  |  |  |  |  |
